The text below walks through data of patent US10738062B2, “Chromane-substituted tetracyclic compounds and uses thereof for the treatment of viral diseases” (Merck Sharp & Dohme Corp., priority 2016, dated 2020).

Holding throughout (parameters): species or system Hepatitis C virus
In experiment [1] the test system is HCV replicon 1A Y93H. The experiment can be described thus: Cell-based HCV replicon assay (Replicon Assay A), replicon 1AY93H. The settings on record: read-out: EC50 replicon 1A Y93H; Replicon Assay A; replicon RNA by real time PCR, day 3. The procedure: (§1) To measure cell-based anti-HCV activity of compounds of the present invention, two complimentary assays were employed using various replicons. In the first assay (“Replicon Assay A”), replicon cells were seeded at 2000 cells/well in 384-well 384-well flat bottom tissue culture treated clear bottom plate (Corning 3707) in the presence of the test compound. Various concentrations of test compound, typically in 10 serial dilutions, were added to the assay mixture, with the starting concentration ranging from 333.3 nM to 1.667 nM. The final concentration of DMSO was 0.5%. Fetal bovine serum was 5%, in the assay media. Cells were harvested on day 3 by removing media and washing the cells with a suitable wash buffer. The cells were lysed with the addition of 1× Qiagen lysis buffer (Cat #1062731). The replicon RNA level was measured using real time PCR (TaqMan® EZ RT-PCR, Applied Biosystems 403028) with the following primers and probes: […]
(§2) Cyclophilin RNA was used as endogenous control and was amplified in the same reaction as NS5B (multiplex PCR). The real-time RT-PCR reactions were run on ABI PRISM 7900HT Sequence Detection System using the following program: 50° C. for 2 minutes, 60° C. for 30 minutes, 95° C. for 5 minutes, 40 cycles of 94° C. for 20 sec, 55° C. for 1 minutes.
(§3) The amount of HCV replicon RNA per cell was quantified using a linear regression curve for a known nanogram (ng) amount of HCV replicon total RNA. This was established by plotting the Cycle Threshold values (Ct) from the Neo probe and primer set versus the log (ng) for each HCV replicon total RNA standard. The amount of HCV RNA for each replicon sample was calculated by taking the sample's Ct value, minus the line intercept, divided by the slope of the line. Similarly, the amount of Cyclophilin mRNA per cell was also quantified using a linear regression curve for a known nanogram (ng) amount of HCV replicon total RNA. Again, this was established by plotting the Cycle Threshold values (Ct) from the Cyclophilin probe and primer set versus the log (ng) for each HCV replicon total RNA standard.
(§4) The real-time RT-PCR reactions were run on ABI PRISM 7900HT or Viia7 Sequence Detection System using the following program: 48° C. for 30 minutes, 95° C. for 10 minutes, 40 cycles of 95° C. for 15 sec, 60° C. for 1 minutes. The 50% effective concentration (EC50) was the drug concentration necessary to achieve an increase in the cycle threshold (CT) of 1 over the projected baseline CT.
(§5) Data was obtained for various compounds of the present invention using the methods described in the Example above, and is presented in the table immediately below. EC50 data for replicons 1A, 1AY93H and 2B were obtained using Replicon Assay A and EC50 data for replicon 1B was obtained using Replicon Assay B.
For orientation: Replicon systems follow genome replication, usually without infectious particles.

The subject of experiment [2] is HCV replicon 1A. The experiment can be described thus: Cell-based HCV replicon assay (Replicon Assay A), replicon 1A. The settings on record: replicon RNA by real time PCR, day 3. The procedure: as §1, §2, §3, §4, §5
The subject of experiment [3] is HCV replicon 2B. The experiment is described as follows: Cell-based HCV replicon assay (Replicon Assay A), replicon 2B. The settings on record: read-out: EC50 replicon 2B; Replicon Assay A; replicon RNA by real time PCR, day 3. The procedure:
as §1, §2, §3, §4, §5

As a reminder, the EC50 is the concentration needed to bring the measured effect to its halfway point. Regarding `COC(=O)NC(C(=O)N1CCC[C@H]1c1ncc(-c2ccc3c(c2)cc2n3C(c3ccc4c(c3)OC(C)CC4)Oc3cc(-c4cnc([C@@H]5CCCN5C(=O)[C@@H](NC(=O)OC)C(C)C)[nH]4)cc(F)c3-2)[nH]1)C1C[C@@H](C)O[C@@H](C)C1` (single isomer, unassigned) [Compound 57], the concentration for a half-maximal effect (EC50) in experiment [1] came to 0.685 nM; in experiment [2] (Hepatitis C virus, 72 h), 0.002 nM; in experiment [3], 0.33 nM.
In the case of `COC(=O)NC(C(=O)N1CCC[C@H]1c1ncc(-c2ccc3c(c2)cc2n3C(c3ccc4c(c3)OC(C)CC4)Oc3cc(-c4cnc([C@@H]5CCCN5C(=O)[C@@H](NC(=O)OC)C(C)C)[nH]4)cc(F)c3-2)[nH]1)C1C[C@@H](C)O[C@@H](C)C1` (single isomer, unassigned) [Compound 58], the values for the concentration giving a half-maximal response (EC50) in experiment [1], in experiment [2] and in experiment [3] were 1.09 nM, 0.0022 nM and 0.403 nM, respectively.
Turning to `COC(=O)NC(C(=O)N1CCC[C@H]1c1ncc(-c2ccc3c(c2)cc2n3C(c3ccc4c(c3)OC(C)CC4)Oc3cc(-c4cnc([C@@H]5CCCN5C(=O)[C@@H](NC(=O)OC)C(C)C)[nH]4)cc(F)c3-2)[nH]1)C1CCOC(C)(C)C1` (single isomer, unassigned) [Compound 61], the EC50 in experiment [1] came out at 1.49 nM; in experiment [2] (Hepatitis C virus, 72 h), 0.0023 nM; in experiment [3], 0.215 nM.
On to `COC(=O)NC(C(=O)N1CCC[C@H]1c1ncc(-c2ccc3c(c2)cc2n3C(c3ccc4c(c3)OC(C)CC4)Oc3cc(-c4cnc([C@@H]5CCCN5C(=O)[C@@H](NC(=O)OC)C(C)C)[nH]4)cc(F)c3-2)[nH]1)C1CCOC(C)(C)C1` (single isomer, unassigned) [Compound 62], for which the results for the EC50 in experiment [1], in experiment [2] and in experiment [3] were 0.516 nM, 0.0019 nM and 0.253 nM, respectively.
With `COC(=O)NC(C(=O)N1[C@@H]2C[C@@H]2C[C@H]1c1ncc(-c2ccc3c(c2)cc2n3C(c3ccc4c(c3)CCCO4)Oc3cc(-c4cnc([C@@H]5CCCN5C(=O)[C@@H](NC(=O)OC)C(C)C)[nH]4)cc(F)c3-2)[nH]1)C1C[C@@H](C)O[C@@H](C)C1` (single isomer, unassigned) [Compound 66], the EC50 in experiment [1] was found to be 0.172 nM; in experiment [2], 0.0034 nM; in experiment [3], 2.35 nM.
As to `COC(=O)NC(C(=O)N1[C@@H]2C[C@@H]2C[C@H]1c1ncc(-c2ccc3c(c2)cc2n3C(c3ccc4c(c3)OCCC4)Oc3cc(-c4cnc([C@@H]5CCCN5C(=O)[C@@H](NC(=O)OC)C(C)C)[nH]4)cc(F)c3-2)[nH]1)C1C[C@@H](C)O[C@@H](C)C1` (single isomer, unassigned) [Compound 67], the EC50 in experiment [1] was 0.391 nM; in experiment [2] (Hepatitis C virus, 72 h), 0.0012 nM; in experiment [3] it was 0.607 nM.
As to `COC(=O)NC(C(=O)N1CCC[C@H]1c1ncc(-c2ccc3c(c2)cc2n3C(c3ccc4c(c3)CCCO4)Oc3cc(-c4cnc([C@@H]5CCCN5C(=O)[C@@H](NC(=O)OC)C(C)C)[nH]4)cc(F)c3-2)[nH]1)C1C[C@@H](C)O[C@@H](C)C1` (single isomer, unassigned) [Compound 73], the EC50 was 1.36 nM in experiment [1]; 0.0031 nM in experiment [2] (Hepatitis C virus, 72 h); 0.791 nM in experiment [3].
Consider `COC(=O)NC(C(=O)N1CCC[C@H]1c1ncc(-c2ccc3c(c2)cc2n3C(c3ccc4c(c3)CCCO4)Oc3cc(-c4cnc([C@@H]5CCCN5C(=O)[C@@H](NC(=O)OC)C(C)C)[nH]4)cc(F)c3-2)[nH]1)C1C[C@@H](C)O[C@@H](C)C1` (single isomer, unassigned) [Compound 74], for which the values for the EC50 in experiment [1], in experiment [2] and in experiment [3] were 0.091 nM, 0.0025 nM and 0.234 nM, respectively.
In the case of `COC(=O)NC(C(=O)N1CCC[C@H]1c1ncc(-c2ccc3c(c2)cc2n3C(c3ccc4c(c3)OCCC4)Oc3cc(-c4cnc([C@@H]5CCCN5C(=O)[C@@H](NC(=O)OC)C(C)C)[nH]4)cc(F)c3-2)[nH]1)C1C[C@@H](C)O[C@@H](C)C1` (single isomer, unassigned) [Compound 75], the EC50 in experiment [1] was 1.27 nM; in experiment [2] (Hepatitis C virus, 72 h) it was 0.0018 nM; in experiment [3], 0.296 nM.
